Experimental data published in patent publication US4464467A, “Antitumor antibiotics produced by new streptomyces” (Bristol-Myers Company, priority 1982, dated 1984).

Tests used:
lymphatic leukemia P388 = assay: Antitumor activity against leukemia P388, second experiment (Table 10); format: in vivo, male BDF1 mice; settings: for Survivors Day 5 / Survivors Day 22 / MST % T/C / Average weight change: QD 1→9; for antitumor activity against leukemia P388 (in words): second experiment, ip, once daily for 9 days, comparative
Procedure: In this experiment lymphatic leukemia P388 was implanted intraperitoneally into male BDF1 mice at an inoculum size of 10^6 cells per mouse. Test compounds were dissolved in 0.9% saline containing 10% dimethylsulfoxide. Graded doses of test compounds were administered to mice intraperitoneally 24 hours after the tumor implantation, and the treatment was continued once daily for 9 days.
Tumor inoculum: 10^6 ascites cells implanted
Treatment: QD 1→9, i.p.
Evaluation: MST = median survival
Effect: % T/C = (MST treated/MST control) ×
Criteria: % T/C ≥125 considered as significant antitumor activity

P388 mouse leukemia = P388 mouse leukemia test (comparison of 2-hydroxy isomers); format: in vivo; settings: β-hydroxy versus α-hydroxy isomers
Source text: The diastereoisomers of BBM-2040A and B of the present invention have been disclosed in Symposium Papers of the 24th Symposium on the Chemistry of Natural Products (Osaka, Japan, Oct. 13-16, 1981): Paper #72, pp. 552-559. Compounds 31b and 32b in this paper have the structures [drawing 2] and may be differentiated from BBM-2040A and B of the present invention in the configuration of the C-2 hydroxy group, i.e. BBM-2040A and B have the C-2 hydroxy group in the α-configuration while the corresponding 31b and 32b diastereoisomers have the β-configuration at the C-2 hydroxy group.

[1] = test system: lymphocytic leukemia P388; assay: Antitumor activity against leukemia P388 in mice (Table 9); format: in vivo, mice (BDF1 strain); settings: first experiment; ip, qd 1→9; comparative
Procedure: The antitumor activity of BBM-2040A and B was determined in mice (BDF1 strain) against lymphocytic leukemia P388. Each mouse was inoculated intraperitoneally with 10^6 cells of tumor. Graded doses of test compounds were administered to mice intraperitoneally 24 hours after the tumor implantation. The treatments were given once daily for 9 days (qd 1→9 schedule). Neothramycin was comparatively tested as a reference compound.
*ratio of median survival time of test and control animals

[2] = Acute toxicity, single intraperitoneal administration; design: species or system mice (ddY strain); settings: mouse, in vivo, ip, ddY mice
Procedure: The intraperitoneal LD50 of neothramycin has been reported to be 20-30 mg/kg.

[3] = test system: Streptococcus pyogenes, Micrococcus luteus, Micrococcus flavus and Mycobacterium strains; assay: Antibacterial activity, agar dilution; format: cell-based; settings: against Streptococcus pyogenes
Procedure: The minimum inhibitory concentration (MIC) of BBM-2040 was determined for a variety of gram-positive, gram-negative and acid-fast bacteria by the serial two-fold agar dilution method. Nutrient agar medium was used for gram-positive and gram-negative organisms and No. 1001 medium (3% glycerol, 0.3% sodium L-glutamate, 0.2% peptone, 0.31% Na2 HPO4, 0.1% KH2 PO4, 0.005% ammonium citrate, 0.001% MgSO4 and 1.5% agar) for acid-fast organisms.

[4] = in benzene, chloroform and n-hexane
[5] = in ethyl acetate, acetone and water
[6] = in methanol, ethanol, n-butanol and pyridine

COc1cc2c(cc1O)N[C@H](OC)[C@@H]1C[C@@H](O)CN1C2=O [2β-Hydroxy epimer of BBM-2040 A]
Survivors Day 5 (lymphatic leukemia P388; 0.03 mg/kg/day ip): 6/6 | Survivors Day 22 (lymphatic leukemia P388; 0.03 mg/kg/day ip): 0/6 | Survivors Day 5 (lymphatic leukemia P388; 0.1 mg/kg/day ip): 6/6 | Survivors Day 22 (lymphatic leukemia P388; 0.1 mg/kg/day ip): 0/6 | Survivors Day 5 (lymphatic leukemia P388; 0.3 mg/kg/day ip): 6/6 | Survivors Day 22 (lymphatic leukemia P388; 0.3 mg/kg/day ip): 0/6 | Survivors Day 5 (lymphatic leukemia P388; 1 mg/kg/day ip): 6/6 | Survivors Day 22 (lymphatic leukemia P388; 1 mg/kg/day ip): 0/6

COc1cc2c(cc1O)N=C[C@@H]1C[C@@H](O)CN1C2=O [32b, reference compound]
antitumor activity in the P388 mouse leukemia test (in words) (P388 mouse leukemia): essentially devoid of antitumor activity

COc1cc2c(cc1O)N=CC1CCC(O)N1C2=O (stereo not drawn) [Neothramycin]
antitumor activity against leukemia P388 (in words) [1]: similarly active | MST % T/C (lymphatic leukemia P388; 0.1 mg/kg/day ip): 108% | Survivors Day 5 (lymphatic leukemia P388; 0.1 mg/kg/day ip): 6/6 | Survivors Day 22 (lymphatic leukemia P388; 0.1 mg/kg/day ip): 0/6 | MST % T/C (lymphatic leukemia P388; 0.3 mg/kg/day ip): 121% | Survivors Day 5 (lymphatic leukemia P388; 0.3 mg/kg/day ip): 6/6 | Survivors Day 22 (lymphatic leukemia P388; 0.3 mg/kg/day ip): 0/6 | MST % T/C (lymphatic leukemia P388; 1 mg/kg/day ip): 142% | Survivors Day 5 (lymphatic leukemia P388; 1 mg/kg/day ip): 6/6 | Survivors Day 22 (lymphatic leukemia P388; 1 mg/kg/day ip): 0/6 | MST % T/C (lymphatic leukemia P388; 3 mg/kg/day ip): 146% | Survivors Day 5 (lymphatic leukemia P388; 3 mg/kg/day ip): 6/6 | Survivors Day 22 (lymphatic leukemia P388; 3 mg/kg/day ip): 0/6 | antitumor activity against leukemia P388 (in words) (lymphatic leukemia P388): similarly active

COc1cc2c(cc1O)N=C[C@@H]1C[C@H](O)CN1C2=O [BBM-2040B]
stability in solutions (Stability in solutions): relatively unstable | antitumor activity against leukemia P388 (in words) [1]: somewhat less active than BBM-2040A | solubility (Solubility; [4]): practically insoluble | solubility (Solubility; [5]): slightly soluble | solubility (Solubility; [6]): readily soluble | antitumor activity in the P388 mouse leukemia test (in words) (P388 mouse leukemia): marked activity | LD50 [2]: 57 mg/kg | antibacterial activity (in words) [3]: weak antibacterial activity

COc1cc2c(cc1O)N[C@H](OC)[C@@H]1C[C@H](O)CN1C2=O [BBM-2040A, (2S, 11aS)-5,10,11,11a-tetrahydro-2,8-dihydroxy-7,11-dimethoxy-5-oxo-1H-pyrrolo(2,1-c) (1,4)benzodiazepine]
antitumor activity against leukemia P388 (in words) [1]: similarly active | Average weight change (lymphatic leukemia P388; 0.1 mg/kg/day ip): +1.5 g | MST % T/C (lymphatic leukemia P388; 0.1 mg/kg/day ip): 100% | Survivors Day 5 (lymphatic leukemia P388; 0.1 mg/kg/day ip): 6/6 | Survivors Day 22 (lymphatic leukemia P388; 0.1 mg/kg/day ip): 0/6 | Average weight change (lymphatic leukemia P388; 0.3 mg/kg/day ip): +1.3 g | MST % T/C (lymphatic leukemia P388; 0.3 mg/kg/day ip): 117% | Survivors Day 5 (lymphatic leukemia P388; 0.3 mg/kg/day ip): 6/6 | Survivors Day 22 (lymphatic leukemia P388; 0.3 mg/kg/day ip): 0/6 | MST % T/C (lymphatic leukemia P388; 1 mg/kg/day ip): 133% | Survivors Day 5 (lymphatic leukemia P388; 1 mg/kg/day ip): 6/6 | Survivors Day 22 (lymphatic leukemia P388; 1 mg/kg/day ip): 0/6 | MST % T/C (lymphatic leukemia P388; 3 mg/kg/day ip): 142% | Survivors Day 5 (lymphatic leukemia P388; 3 mg/kg/day ip): 6/6 | Survivors Day 22 (lymphatic leukemia P388; 3 mg/kg/day ip): 0/6 | MST % T/C (lymphatic leukemia P388; 10 mg/kg/day ip): 163% | Survivors Day 5 (lymphatic leukemia P388; 10 mg/kg/day ip): 6/6 | Survivors Day 22 (lymphatic leukemia P388; 10 mg/kg/day ip): 1/6 | antitumor activity against leukemia P388 (in words) (lymphatic leukemia P388): similarly active | solubility (Solubility; [4]): practically insoluble | solubility (Solubility; [5]): slightly soluble | solubility (Solubility; [6]): readily soluble | antitumor activity in the P388 mouse leukemia test (in words) (P388 mouse leukemia): marked activity | LD50 [2]: 34 mg/kg | antibacterial activity (in words) [3]: weak antibacterial activity

COc1cc2c(cc1O)N[C@H](OC)[C@@H]1C[C@@H](O)CN1C2=O [31b, reference compound]
antitumor activity in the P388 mouse leukemia test (in words) (P388 mouse leukemia): essentially devoid of antitumor activity
